What was measured:
[1] = system: P. acnes; test: Agar dilution MIC assay, panel of propionibacterium strains; type: cell-based, Propionibacterium acnes
Description: This is a standard international method for quantitatively assessing the antimicrobial activity of a compound in a solid medium. The test compound was prepared to 40× the highest concentration required (eg 10 mg/ml for a final concentration of […]) and a series of doubling dilutions were performed in a suitable solvent. A set amount of these antimicrobial stock solutions was then added to molten agar medium (ca 55° C.), mixed thoroughly, poured into sterile Petri dishes and allowed to cool/set. The culture medium was as described above.
A Multipoint™ Inoculator (AQS Manufacturing Ltd, UK) was used to inoculate the plates by spotting the inocula onto the surface of the agar, delivering approximately 1 to 2 μl per spot (yielding 10^5 CFU (colony forming units) per spot).
The plate(s) were then incubated under the conditions described above, following which they were examined visually for signs of bacterial growth. The MIC value was ascertained when there was a marked reduction in, or total loss of, growth on the test plate at the lowest concentration as compared to that of the growth on the control plate.
The assays were conducted in triplicate and included a positive control (culture medium, diluting solvent and inoculum).
The activity (MIC by agar dilution) of copper usnate was determined against a panel of different propionibacterium strains. The culture medium was Wilkins-Chalgren agar, at pH 6.0. DMSO was used as the solvent. All tests were performed in triplicate.

[2] = system: S. epidermidis NCTC 11047; test: MIC assay; type: cell-based, Staphylococcus epidermidis; conditions: Mueller-Hinton broth pH 7.0
Text: (§1) (a) staphylococci. The Staphylococcus aureus strain used was ATCC 29213. S. aureus and other staphylococci are common causes of a wide range of skin, skin structure and wound infections; S. aureus is also known to exacerbate eczema. The ATCC 29213 strain is known to be susceptible to beta-lactam antibiotics such as methicillin. The Staphylococcus epidermidis strain used was NCTC 11047. Staph. epidermidis forms part of the resident flora of skin and is an opportunistic pathogen which can cause biofilms to grow for instance on plastic surgical implants such as catheters. […]
This is a standard international method for quantitatively assessing the antimicrobial activity of a compound in a liquid medium. […]
The wells were inoculated with a liquid suspension of freshly grown micro-organism and incubated under the conditions described above. […] The MIC value was recorded as the lowest concentration of test compound required to inhibit microbial growth, ie the lowest concentration for which the liquid in the well remained clear. […]
(§2) Example 8 was repeated (except for the supplemented DDA assays), using S. aureus ATCC 29213 as the test organism. […] In the DDA assays, 200 μg is of each compound was loaded onto each disc: the culture medium was Mueller-Hinton agar at pH 7.0, and results were recorded after overnight incubation at 37° C. in air. […]

[3] = system: S. epidermidis NCTC 11047; test: Disc diffusion assay (DDA); type: cell-based, Staphylococcus epidermidis; conditions: 200 μg per disc; Mueller-Hinton agar pH 7.0; overnight at 37° C. in air
Text: as §1, with “catheters. Unless otherwise stated, the staphylococci were cultured and maintained on Mueller-Hinton Medium (agar and broth) at pH 7.2; cultures were incubated aerobically at 37° C. for 19-20 hours, at pH 7 (±0.2). (b) C. striatum NCTC 764.” for “catheters.”
A sterile paper disc was impregnated with a sample of the test compound in a suitable solvent and 30 minutes allowed for the solvents to evaporate (where possible). […] The diameter of this zone of “inhibition” was measured using a ProtoCOL™ automated zone sizer (Synbiosis, Cambridge, UK). […]
as §2

How did the MIC ([1]; P. acnes NCTC 737, mutation None, resistance phenotype None) turn out when `CC(=O)c1c([O-])c(C)c([O-])c2c1OC1=CC(=O)C(C(C)=O)C(=O)C12C.[Cu+2]` (stereo not shown) [Copper usnate, copper (II) usnate] was run?
Its MIC is 0.49 µg/mL.

What about the MIC ([1]; P. acnes PRP-002, mutation 1058/2058, resistance Tet/MLS) of the same compound?
The MIC was 0.49 µg/mL.

And the MIC ([1]; P. acnes PRP-003, mutation 1058, resistance Tet)?
The MIC was 0.49 µg/mL.

And the MIC ([1]; P. acnes PRP-004, mutation 1058, resistance Tet)?
Its MIC is 0.49 µg/mL.

What about the MIC ([1]; P. acnes PRP-007, mutation Unknown, resistance Clin) of the same compound?
The MIC was 0.49 µg/mL.

What about the MIC ([1]; P. acnes PRP-010, Erm X, resistance MLSK) of the same compound?
Its MIC is 0.49 µg/mL.

And the MIC ([1]; P. acnes PRP-017, mutation 2058, resistance MLS)?
The MIC was 0.49 µg/mL.

And the MIC ([1]; P. acnes PRP-023, Erm X, resistance MLSK)?
The MIC was 0.49 µg/mL.

And the MIC ([1]; P. acnes PRP-026, mutation 2059, resistance MLS)?
The MIC was 0.49 µg/mL.

And the MIC ([1]; P. acnes PRP-039, mutation 2059, resistance Tet/MLS)?
Its MIC is 0.49 µg/mL.

And the MIC ([1]; P. acnes PRP-046, mutation None, resistance None)?
The MIC was 0.49 µg/mL.

What about the MIC ([1]; P. acnes PRP-059, mutation 2058, resistance MLS) of the same compound?
Its MIC is 0.49 µg/mL.

What about the MIC ([1]; P. acnes PRP-101, mutation 1058/2059, resistance Tet/MLS) of the same compound?
The MIC was 0.49 µg/mL.

And the MIC ([1]; P. acnes PRP-102, mutation 1058/2059, resistance Tet/MLS)?
The MIC was 0.49 µg/mL.

And the MIC [2]?
The MIC was 0.98 µg/mL.

What about the DDA zone diameter [3] of the same compound?
The DDA zone diameter was 25.7 ± 0.6 mm.

Source: patent US20120270935A1, “FORMULATIONS” (priority 2009, published 2012)
